Results: US8022102B2, “Unsaturated tetracyclic tetrahydrofuran derivatives” (Janssen Pharmaceutica, NV, priority 2004, dated 2011)
Like-named read-outs stand apart in the source and are kept apart here.

Columns and labels:
[1] = target: T1, human cloned 5-HT2A receptor (Homo sapiens, UniProt P28223); experiment: In vitro binding affinity for 5-HT2A receptor (radioligand binding); details: human cloned 5-HT2A receptor, radioligand binding
T1 construct: expressed in transfected cells; host or cells: L929 cells
T1 sequence (P28223 whole entry): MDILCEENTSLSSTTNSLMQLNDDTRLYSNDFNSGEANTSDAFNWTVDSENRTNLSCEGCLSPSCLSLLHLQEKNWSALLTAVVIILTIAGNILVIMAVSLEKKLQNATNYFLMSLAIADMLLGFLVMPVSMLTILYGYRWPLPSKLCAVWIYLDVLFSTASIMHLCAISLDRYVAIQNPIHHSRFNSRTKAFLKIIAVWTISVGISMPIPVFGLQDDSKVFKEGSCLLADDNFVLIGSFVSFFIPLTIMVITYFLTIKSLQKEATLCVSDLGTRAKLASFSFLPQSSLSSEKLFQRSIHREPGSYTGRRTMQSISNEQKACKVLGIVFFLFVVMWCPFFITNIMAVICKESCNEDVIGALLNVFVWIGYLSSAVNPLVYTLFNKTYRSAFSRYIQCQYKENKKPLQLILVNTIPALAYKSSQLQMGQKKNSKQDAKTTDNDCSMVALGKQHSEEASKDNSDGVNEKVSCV
Procedure: During the incubation, the radioligands bind to the receptor. When equilibrium of binding is reached, the receptor bound radioactivity is separated from the non-bound radioactivity, and the receptor bound activity is counted. The interaction of the test compounds with the receptors is assessed in competition binding experiments. Various concentrations of the test compound are added to the incubation mixture containing the tissue preparation and the radioligand. Binding of the radioligand will be inhibited by the test compound in proportion to its binding affinity and its concentration. The affinities of the compounds for the 5-HT2 receptors were measured by means of radioligand binding studies conducted with: (a) human cloned 5-HT2A receptor, expressed in L929 cells using [^125I]R91150 as radioligand and (b) human cloned 5-HT2C receptor, expressed in CHO cells using [^3H]mesulergine as radioligand.

[2] = target: T2, human Dopamine D2L receptor (Homo sapiens, UniProt P14416); experiment: In vitro binding affinity for human D2L receptor ([3H]Spiperone); details: human D2L receptor-transfected CHO cell membranes, [3H]Spiperone; read-out: h-D2L (converted)
T2 construct: expressed in transfected cells; host or cells: CHO cells
T2 sequence (P14416 whole entry): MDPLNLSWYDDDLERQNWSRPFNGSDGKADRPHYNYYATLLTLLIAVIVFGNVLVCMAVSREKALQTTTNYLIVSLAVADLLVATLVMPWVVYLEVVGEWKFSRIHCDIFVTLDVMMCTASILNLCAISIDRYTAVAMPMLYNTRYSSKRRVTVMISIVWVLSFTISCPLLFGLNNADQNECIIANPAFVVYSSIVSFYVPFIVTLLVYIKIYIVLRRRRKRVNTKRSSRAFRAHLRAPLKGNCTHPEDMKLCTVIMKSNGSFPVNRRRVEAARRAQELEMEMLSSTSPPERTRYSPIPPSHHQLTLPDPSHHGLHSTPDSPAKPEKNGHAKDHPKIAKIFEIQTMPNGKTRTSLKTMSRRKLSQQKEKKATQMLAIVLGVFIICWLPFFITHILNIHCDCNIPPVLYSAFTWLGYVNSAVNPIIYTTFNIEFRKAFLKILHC
Procedure: Frozen membranes of human Dopamine D2L receptor-transfected CHO cells were thawed, briefly homogenised using an Ultra-Turrax T25 homogeniser and diluted in Tris-HCl assay buffer containing NaCl, CaCl2, MgCl2, KCl (50, 120, 2, 1, and 5 mM respectively, adjusted to pH 7.7 with HCl) to an appropriate protein concentration optimised for specific and non-specific binding. Radioligand [^3H]Spiperone (NEN, specific activity ˜70 Ci/mmol) was diluted in assay buffer at a concentration of 2 nmol/L. Prepared radioligand (50 μl), along with 50 μl of either the 10% DMSO control, Butaclamol (10^−6 mol/l final concentration), or compound of interest, was then incubated (30 min, 37° C.) with 400 μl of the prepared membrane solution. Membrane-bound activity was filtered through a Packard Filtermate harvester onto GF/B Unifilterplates and washed with ice-cold Tris-HCl buffer (50 mM; pH 7.7; 6×0.5 ml). Filters were allowed to dry before adding scintillation fluid and counting in a Topcount scintillation counter. Percentage specific bound and competition binding curves were calculated using S-Plus software (Insightful).

[3] = target: T3, human cloned 5-HT2C receptor (Homo sapiens, UniProt P28335); experiment: In vitro binding affinity for 5-HT2C receptor (radioligand binding); details: human cloned 5-HT2C receptor, radioligand binding
T3 construct: expressed in transfected cells; host or cells: CHO cells
T3 sequence (P28335 33-458): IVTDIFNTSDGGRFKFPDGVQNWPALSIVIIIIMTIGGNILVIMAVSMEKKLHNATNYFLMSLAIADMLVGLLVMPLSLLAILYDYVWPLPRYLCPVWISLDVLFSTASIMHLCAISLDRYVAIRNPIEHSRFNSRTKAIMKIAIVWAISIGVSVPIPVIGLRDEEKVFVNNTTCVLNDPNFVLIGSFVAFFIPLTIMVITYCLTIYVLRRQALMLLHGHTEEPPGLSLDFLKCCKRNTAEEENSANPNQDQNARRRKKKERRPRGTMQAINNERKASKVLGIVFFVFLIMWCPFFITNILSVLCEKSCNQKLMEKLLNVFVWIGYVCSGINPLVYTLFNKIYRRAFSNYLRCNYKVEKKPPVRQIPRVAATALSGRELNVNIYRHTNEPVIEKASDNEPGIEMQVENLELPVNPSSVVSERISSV
Procedure: During the incubation, the radioligands bind to the receptor. When equilibrium of binding is reached, the receptor bound radioactivity is separated from the non-bound radioactivity, and the receptor bound activity is counted. The interaction of the test compounds with the receptors is assessed in competition binding experiments. Various concentrations of the test compound are added to the incubation mixture containing the tissue preparation and the radioligand. Binding of the radioligand will be inhibited by the test compound in proportion to its binding affinity and its concentration.

SMILES | IC50 ([1]; read-out: h-5HT2A (converted)) [nM] | IC50 [2] [nM] | IC50 ([3]; read-out: h-5HT2C (converted)) [nM] | IC50 ([1]; h-5HT2A) [nM] | IC50 ([3]; h-5HT2C) [nM]
CNCC1CC2=C(O1)c1cc(F)ccc1Sc1ccccc12 (single isomer, unassigned) [Compound 13] | 3.16 | 200 | 3.98 | – | –
CNCC1CC2=C(O1)c1cc(F)ccc1Sc1ccccc12 (single isomer, unassigned) [Compound 14] | – | – | 0.2 | – | –
CN(C)CC1CC2=C(O1)c1ccccc1Cc1ccccc12 (single isomer, unassigned) [Compound 23] | – | 1580 | 15.8 | – | –
CN(C)CC1CC2=C(O1)c1ccccc1Cc1ccccc12 (single isomer, unassigned) [Compound 24] | – | 158 | 1.26 | – | –
NCC1CC2=C(O1)c1cc(F)ccc1Cc1ccccc12 (stereo not shown) [Compound 1] | 1.58 | – | 0.794 | – | –
CNCC1CC2=C(O1)c1cc(Br)ccc1Cc1ccccc12 (stereo not shown) [Compound 5] | 0.794 | 31.6 | 0.794 | – | –
CCCCc1ccc2c(c1)C1=C(CC(CNC)O1)c1ccccc1C2 (stereo not shown) [Compound 6] | 31.6 | 251 | – | – | –
CNCC1CC2=C(O1)c1cc(F)ccc1C(C)c1ccccc12 (stereo not shown) [Compound 8] | 31.6 | 2000 | 10 | – | –
CCNCC1CC2=C(O1)c1cc(F)ccc1Sc1ccccc12 (stereo not shown) [Compound 18] | 0.398 | 15.8 | 1.26 | – | –
OCCNCC1CC2=C(O1)c1cc(F)ccc1Cc1ccccc12 (stereo not shown) [Compound 19] | 1.58 | 63.1 | 1 | – | –
CN(C)CC1CC2=C(O1)c1ccccc1Cc1ccccc12 (stereo not shown) [Compound 22] | 3.98 | – | 3.98 | – | –
CN(C)CC1CC2=C(O1)c1ccccc1Oc1ccccc12 (stereo not shown) [Compound 25] | 63.1 | 1260 | 20 | – | –
CN(C)CC1CC2=C(O1)c1cc(F)ccc1Oc1ccccc12 (stereo not shown) [Compound 26] | 10 | – | 7.94 | – | –
CN(C)CC1CC2=C(O1)c1cc(Br)ccc1Oc1ccccc12 (stereo not shown) [Compound 27] | 7.94 | – | 2.51 | – | –
CN(C)CC1CC2=C(O1)c1cc(F)ccc1Sc1ccccc12 (stereo not shown) [Compound 28] | 0.398 | 12.6 | – | – | –
CN(CCO)CC1CC2=C(O1)c1cc(F)ccc1Cc1ccccc12 (stereo not shown) [Compound 31] | 2.51 | – | 1.58 | – | –
CN(CCO)CC1CC2=C(O1)c1cc(F)ccc1Oc1ccccc12 (stereo not shown) [Compound 32] | 15.8 | – | 25.1 | – | –
OC1CCN(CC2CC3=C(O2)c2cc(F)ccc2Cc2ccccc23)C1 (stereo not shown) [Compound 33] | 0.794 | 39.8 | 0.794 | – | –
OC1CCN(CC2CC3=C(O2)c2cc(F)ccc2Sc2ccccc23)C1 (stereo not shown) [Compound 34] | 0.126 | 10 | – | – | –
OC1CCCN(CC2CC3=C(O2)c2cc(F)ccc2Cc2ccccc23)C1 (stereo not shown) [Compound 37] | 1 | 20 | 2 | – | –
OCCC1CCN(CC2CC3=C(O2)c2cc(F)ccc2Cc2ccccc23)CC1 (stereo not shown) [Compound 38] | 0.316 | 2 | 1.26 | – | –
O=S(=O)(Cc1ccccc1)N1CCN(CC2CC3=C(O2)c2cc(F)ccc2Cc2ccccc23)CC1 (stereo not shown) [Compound 51] | 79.4 | 100 | 200 | – | –
O=S(=O)(Cc1ccccc1)N1CCN(CC2CC3=C(O2)c2cc(F)ccc2Oc2ccccc23)CC1 (stereo not shown) [Compound 52] | 100 | 158 | 200 | – | –
CCOC(=O)N1CCN(CC2CC3=C(O2)c2cc(F)ccc2Oc2ccccc23)CC1 (stereo not shown) [Compound 62] | 79.4 | 631 | 200 | – | –
CN(C)C(=O)N1CCN(CC2CC3=C(O2)c2cc(F)ccc2Cc2ccccc23)CC1 (stereo not shown) [Compound 75] | 50.1 | 794 | 316 | – | –
CN(C)C(=O)N1CCN(CC2CC3=C(O2)c2cc(F)ccc2Oc2ccccc23)CC1 (stereo not shown) [Compound 76] | 50.1 | 251 | 158 | – | –
CCOC(=O)CNC(=O)N1CCN(CC2CC3=C(O2)c2cc(F)ccc2Oc2ccccc23)CC1 (stereo not shown) [Compound 82] | 39.8 | 1580 | 158 | – | –
CN(C[C@H]1CC2=C(O1)c1cc(F)ccc1Cc1ccccc12)C(=O)Oc1ccccc1 [Compound 111] | – | – | – | 200 | 3.98

Now from value to molecule, other results behind:

IC50 ([1]; read-out: h-5HT2A (converted)) [nM] | IC50 [2] [nM] | IC50 ([3]; read-out: h-5HT2C (converted)) [nM] | SMILES | IC50 ([1]; h-5HT2A) [nM] | IC50 ([3]; h-5HT2C) [nM]
39.8 | > 10000 | – | CN(C[C@H]1CC2=C(O1)c1cc(F)ccc1Cc1ccccc12)C1CC(=O)NC1=O (mixture of isomers) [Compound 124] | – | –
6.31 | 50.1 | 2.51 | COc1cc2c(cc1OC)CN(CC1CC3=C(O1)c1cc(F)ccc1Cc1ccccc13)CC2 (stereo not shown) [Compound 40] | – | –
5.01 | 10 | 12.6 | OCCN1CCN(CC2CC3=C(O2)c2cc(F)ccc2Cc2ccccc23)CC1 (stereo not shown) [Compound 41] | – | –
3.16 | 5.01 | 10 | OCCN1CCN(CC2CC3=C(O2)c2cc(F)ccc2Sc2ccccc23)CC1 (stereo not shown) [Compound 42] | – | –
79.4 | 794 | 100 | CS(=O)(=O)N1CCN(CC2CC3=C(O2)c2cc(F)ccc2Oc2ccccc23)CC1 (stereo not shown) [Compound 45] | – | –
3.98 | 200 | 7.94 | CC(=O)N1CCN(CC2CC3=C(O2)c2cc(F)ccc2Cc2ccccc23)CC1 (stereo not shown) [Compound 53] | – | –
31.6 | – | 100 | CC(=O)N1CCN(CC2CC3=C(O2)c2cc(F)ccc2Oc2ccccc23)CC1 (stereo not shown) [Compound 54] | – | –
3.98 | 316 | 10 | CCCC(=O)N1CCN(CC2CC3=C(O2)c2cc(F)ccc2Cc2ccccc23)CC1 (stereo not shown) [Compound 55] | – | –
100 | 1260 | 100 | CCCC(=O)N1CCN(CC2CC3=C(O2)c2cc(F)ccc2Oc2ccccc23)CC1 (stereo not shown) [Compound 56] | – | –
3.98 | 316 | 20 | O=C(C1CC1)N1CCN(CC2CC3=C(O2)c2cc(F)ccc2Cc2ccccc23)CC1 (stereo not shown) [Compound 57] | – | –
2 | 316 | 5.01 | COC(=O)CC(=O)N1CCN(CC2CC3=C(O2)c2cc(F)ccc2Cc2ccccc23)CC1 (stereo not shown) [Compound 59] | – | –
10 | 200 | 20 | CCOC(=O)N1CCN(CC2CC3=C(O2)c2cc(F)ccc2Cc2ccccc23)CC1 (stereo not shown) [Compound 61] | – | –
12.6 | 251 | 100 | COc1ccc(C(=O)N2CCN(CC3CC4=C(O3)c3cc(F)ccc3Oc3ccccc34)CC2)cc1 (stereo not shown) [Compound 74] | – | –
3.98 | 126 | – | CCCCNC(=O)N1CCN(CC2CC3=C(O2)c2cc(F)ccc2Cc2ccccc23)CC1 (stereo not shown) [Compound 77] | – | –
79.4 | – | 50.1 | CCCCNC(=O)N1CCN(CC2CC3=C(O2)c2cc(F)ccc2Oc2ccccc23)CC1 (stereo not shown) [Compound 78] | – | –
39.8 | 1580 | – | O=C(NC1CCCCC1)N1CCN(CC2CC3=C(O2)c2cc(F)ccc2Cc2ccccc23)CC1 (stereo not shown) [Compound 79] | – | –
39.8 | 1000 | 79.4 | O=C(NC1CCCCC1)N1CCN(CC2CC3=C(O2)c2cc(F)ccc2Oc2ccccc23)CC1 (stereo not shown) [Compound 80] | – | –
10 | 251 | 10 | O=C(Nc1ccccc1)N1CCN(CC2CC3=C(O2)c2cc(F)ccc2Cc2ccccc23)CC1 (stereo not shown) [Compound 83] | – | –
3.16 | 100 | – | O=C(Nc1ccc(F)cc1)N1CCN(CC2CC3=C(O2)c2cc(F)ccc2Cc2ccccc23)CC1 (stereo not shown) [Compound 85] | – | –
